The record followed here is patent publication EP2084544B1, “STABLE STANDARDS FOR BNP IMMUNOASSAYS” (Hytest Ltd., priority 2006, dated 2011).

This data set can be described thus: Stability of BNP immunoreactivity of antigens incubated in pooled human citrate plasma, measured by sandwich immunofluorometric assay (MAbs 50E1 / 24C5-Eu). The data set is classed as in vitro ADME. From the text: Antigens used in the studies. The antigens used in the stability studies included synthetic BNP-32 (Bachem, Bubendorf, Switzerland, cat. no. H-9060.0500), synthetic BNP-32 (Peptide Institute, Osaka, Japan, cat. no. 4212-v), recombinant proBNP (expressed in E. coli, non-glycosylated, from Hytest Ltd., Turku, Finland, 8PRO8), recombinant proBNP (expressed in eukaryotic CHO (Chinese hamster) cells and, thus, glycosylated, as described herein), and recombinant proBNP (expressed in eukaryotic HEK (human) cells and, thus, glycosylated, as described herein).
Antigen solutions. An antigen matrix was prepared by pooling human citrate plasmas collected from healthy donors. Plasma was obtained from 15 healthy volunteers by vein puncture and mixed with 0.11 M sodium citrate tribasic in a ratio of 4:1. The crude serum:citrate was centrifuged for 30 minutes at 2000 rpm. Plasma was decanted, pooled and stored at -70°C until use. Antigen concentrations used in the studies were 6 ng/ml for recombinant proBNP expressed in CHO cells, 20 ng/ml for synthetic BNPs, 20 ng/ml for recombinant proBNP expressed in E. coli and 20 ng/ml for recombinant proBNP expressed in HEK cells. 0.1 % sodium azide was added to plasma as a preservative to prevent bacterial growth.
Incubation at 4°C and 25°C. Antigen solutions in human plasma were incubated for different time periods (up to 96 hours) at 4°C and 25°C. Aliquots were frozen and stored at -70°C until BNP immunoreactivity was measured.
Assays for BNP immunoreactivity. BNP immunoreactivity in the samples was determined by sandwich immunofluorometric assay utilizing two BNP-specific monoclonal antibodies (MAbs). […]
MAb 24C5 specifically recognized and bound to peptide 11-22 of the BNP sequence and was conjugated to stable Eu^3+ chelate using conventional techniques. […] Consequently, it can be used for the quantification of whole BNP immunoreactivity, comprising both BNP and proBNP.

For the compound `CC[C@H](C)[C@@H]1NC(=O)[C@H](CCCNC(=N)N)NC(=O)[C@H](CC(=O)O)NC(=O)[C@H](CCSC)NC(=O)[C@H](CCCCN)NC(=O)[C@H](CCCNC(=N)N)NC(=O)CNC(=O)[C@H](Cc2ccccc2)NC(=O)[C@@H](NC(=O)CNC(=O)[C@H](CO)NC(=O)CNC(=O)[C@H](CCC(N)=O)NC(=O)[C@@H](NC(=O)[C@H](CCSC)NC(=O)[C@H](CCCCN)NC(=O)[C@@H]2CCCN2C(=O)[C@@H](N)CO)C(C)C)CSSC[C@@H](C(=O)N[C@@H](CCCCN)C(=O)N[C@H](C(=O)N[C@@H](CC(C)C)C(=O)N[C@@H](CCCN=C(N)N)C(=O)N[C@@H](CCCN=C(N)N)C(=O)N[C@@H](Cc2cnc[nH]2)C(=O)O)C(C)C)NC(=O)CNC(=O)[C@H](CC(C)C)NC(=O)CNC(=O)[C@H](CO)NC(=O)[C@H](CO)NC(=O)[C@H](CO)NC(=O)[C@H](CO)NC1=O` [Synthetic BNP-32], the “immunoreactivity detected after incubation (in words)” value is, setting by setting: (96 hours of incubation at 4°C) “Almost no immunoreactivity”; (96 hours of incubation at 25°C) “Almost no immunoreactivity”. Moreover, the “stability among the tested protein forms displaying BNP immunoreactivity (rank in words)” value (incubation up to 96 hours at 4°C and 25°C) was “worst stability”.
